Data set [1] has as its system exercise capacity and recovery. Put plainly: case report: exercise performance and recovery of a subject who regularly trains (treadmill, arm curls test, soreness). Type of data set: in vivo, human. The following applies: for arm curls test: maximum number of bicep curl repetitions in 30 seconds: 40 lb dumbbell; for arm curls test: maximum number of bicep curl repetitions in 30 seconds / time to exhaustion on the treadmill: 1 gram doses the day/night before and 1 hour before training; for time to recovery (measured by muscle soreness and discomfort): after training; for time to exhaustion on the treadmill: Ifit treadmill, 0 elevation, 5 miles per hour.

Data set [2] can be described thus: dissolution of 1 g powder in 100 ml water, visual, with and without stirring, centrifugation and filtration. The following applies: for appearance of filtrate / solid left on the filter paper: centrifuged at 1000 rpm for 10 seconds, filtered; for visible dissolution in water without stirring: not stirred, one minute (phenoxide), 10 minutes (curcumin); for solubility in water (visual): FIG. 6 (0.5 g in 50 ml), FIGS. 7 and 8 (1 g in 100 ml).

Data set [3] in a line: solubility of 2 g in 200 ml saturated citric acid solution (pH=3), filtration, visual. The settings on record: for appearance of liquid that passed through the filter: 2 grams in 200 ml saturated citric acid solution. The source says:
The resulting acidic solution was then passed out by a filter. […]

In data set [4] the test system is chronic knee and shoulder pain. In words: case report: oral ingestion by a person with chronic knee and shoulder pain. The settings on record: 1 gram twice per day. It counts as in vivo, human.
For data set [5] the following is noted: Lu et al. 2020, cited from earlier work.
For data set [6] the following is noted: in vivo; cited from earlier work.
For data set [7] the following is noted: standard conditions; cited from earlier work.

Values after ≈ are worked out from the molar mass of the structure shown.

The half-life is the time in which the quantity being followed falls by half.

`COc1cc(/C=C/C(=O)/C=C(O)/C=C/c2ccc(O)c(OC)c2)ccc1O.N.N` [ammonium phenoxide of curcumin]: the “arm curls test: maximum number of bicep curl repetitions in 30 seconds” value in data set [1] turned out to be 14 repetitions. Moreover, in data set [1] (person), the “effect on exercise capacity and recovery (summary)” value was “increased their exercise capacity and reduced the needed time for recovery”; the “time to recovery (measured by muscle soreness and discomfort)” value worked out at 1 days; the “time to exhaustion on the treadmill” value worked out at 15.5 min. The “soreness the day after training” value in data set [1] (person, day after training) is listed as “noticeably lower”. For the same molecule, in data set [2] (1 g in 100 ml water), the appearance of filtrate result was “the color of curcumin”, the “solid left on the filter paper” value is “no solid matter was left on the filter paper” and the “visible dissolution in water without stirring” value is on record as “visible at one minute”. In data set [2] (stirring at 1200 rpm with a magnetic stirrer), the “time for all 1 gram to be dissolved in 100 ml of water” value was “less than 10 seconds”. The “solubility in water (visual)” value in data set [2] is on record as “a lot more water-soluble”. Moreover, in data set [3], the “appearance of liquid that passed through the filter” value is “characteristic orange color of curcumin”. Also, the “solubility at acidic pH (conclusion)” value in data set [3] (saturated citric acid solution) was “increased solubility”. In addition, the “onset of improvement in symptoms” value in data set [4] is “on the second day”. For the same molecule, in data set [4] (30 days), the “pain reduction during the next 30 days” value is “continued showing improvement”.
Consider `COc1cc(/C=C/C(=O)CC(=O)/C=C/c2ccc(O)c(OC)c2)ccc1O` [curcumin], for which the “solubility in Phosphate buffer” value in data set [5] (Phosphate buffer) was 0.310 µg/mL (≈ 0.842 µM). Besides, the solubility in water in data set [5] (water) was 1.622 µg/mL (≈ 4.4 µM). Moreover, the “arm curls test: maximum number of bicep curl repetitions in 30 seconds” value in data set [1] is listed as 11 repetitions. Also, in data set [1] (person), the “effect on exercise capacity and recovery (summary)” value is reported as “no effect”; the “time to recovery (measured by muscle soreness and discomfort)” value is 2 days; the “time to exhaustion on the treadmill” value came out at 13 min. The half-life in data set [6] is about 7 h. In addition, in data set [2] (1 g in 100 ml water), the appearance of filtrate result was “clear and lacked color”; the “solid left on the filter paper” value is given as “all of the curcumin powder was left on the filter paper”; the “visible dissolution in water without stirring” value is recorded as “no visible sign of curcumin dissolving in water”. For the same molecule, the “solubility in water with stirring” value in data set [2] (1 g in 100 ml water, stirring 1200 rpm) is listed as “no solubility even with stirring”. Besides, in data set [2], the “solubility in water (visual)” value is listed as “low solubility”. Further, in data set [3], the “appearance of liquid that passed through the filter” value is given as “totally clear”. For the same molecule, the solubility in ethanol in data set [7] was 1000 µg/mL (≈ 2710 µM).

Source of the values: US12594249B2 (ThermoLife International, LLC, priority 2023, dated 2026).
